Measured values reported in US11976061B2, “Preparation of benzimidazolone derivatives as novel diacylglyceride O-acyltransferase 2 inhibitors” (Merck Sharp & Dohme LLC, priority 2020, dated 2024).
Like-named read-outs stand apart in the source and are kept apart here.

Target: T1, human DGAT2 (hDGAT2) (Homo sapiens, UniProt Q96PD7)
T1 construct: made in house; host or cells: Sf-9 insect cells (baculovirus), membrane fraction
T1 sequence (Q96PD7 1-388): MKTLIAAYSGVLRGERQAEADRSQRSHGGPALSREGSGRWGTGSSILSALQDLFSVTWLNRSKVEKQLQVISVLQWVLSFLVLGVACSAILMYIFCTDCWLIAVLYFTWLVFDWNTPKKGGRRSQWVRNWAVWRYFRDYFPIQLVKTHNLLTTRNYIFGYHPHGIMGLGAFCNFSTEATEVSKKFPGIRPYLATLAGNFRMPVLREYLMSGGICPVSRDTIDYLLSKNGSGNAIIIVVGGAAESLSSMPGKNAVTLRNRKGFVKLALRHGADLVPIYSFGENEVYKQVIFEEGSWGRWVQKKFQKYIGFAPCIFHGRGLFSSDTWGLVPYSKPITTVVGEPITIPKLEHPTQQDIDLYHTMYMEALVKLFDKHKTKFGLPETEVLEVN
Assay: DGAT2 Enzymatic Activity Assay
Assay type: biochemical
Details: membrane prep of Sf-9 cells expressing hDGAT2, 25 μM diolein, 5 μM 13C oleoyl-CoA, 13C18-triolein by LC/MS/MS
Procedure, shortened: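 Membranes from Sf-9 cells expressing untagged human DGAT2 (8 ng/μL) incubated at rt in 100 mM Tris·Cl pH 7.0, 20 mM MgCl2, 5% ethanol with 25 μM diolein and 5 μM 13C oleoyl-CoA. 13C18-triolein product quantified by LC/MS/MS against 13C21-triolein internal standard; IC50 by 4-parameter fit.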

Row | SMILES | IC50 (read-out: DGAT2 IC50) [nM] | IC50 (read-out: Human DGAT2 IC50) [nM]
1 | CC(C)n1c(=O)n(-c2cccc(OC(F)F)c2)c2c(F)cc(C(=O)N[C@@]3(C)CCS(=O)(=O)C3)cc21 [Example 109, 1-[3-(difluoromethoxy)phenyl]-7-fluoro-3-isopropyl-N-[(3S)-3-methyl-1,1-dioxo-thiolan-3-yl]-2-oxo-benzimidazole-5-carboxamide] | 9 | –
2 | CC(C)n1c(=O)n(-c2cccc(OC(F)F)c2)c2cc(F)c(C(=O)N[C@]3(C)CCS(=O)(=O)C3)cc21 [Example 113, (R)-1-(3-(Difluoromethoxy)phenyl)-6-fluoro-3-isopropyl-N-(3-methyl-1,1-dioxidotetrahydrothiophen-3-1)-2-oxo-2,3-dihydro-1H-benzo[d]imidazole-5-carboxamide] | 78 | –
3 | CC(C)n1c(=O)n(-c2cccc(OC(F)F)c2)c2cc(F)c(C(=O)N[C@@]3(C)CCS(=O)(=O)C3)cc21 [Example 114, (S)-1-(3-(Difluoromethoxy)phenyl)-6-fluoro-3-isopropyl-N-(3-methyl-1,1-dioxidotetrahydrothiophen-3-yl)-2-oxo-2,3-dihydro-1H-benzo[d]imidazole-5-carboxamide] | 80 | –
4 | CCOc1cc(-n2c(=O)n(C(C)C)c3cc(C(=O)NC4(C)CS(=O)(=O)C4)c(F)cc32)c(F)cn1 [Example 116, 1-(2-ethoxy-5-fluoropyridin-4-yl)-6-fluoro-3-isopropyl-N-(3-methyl-1,1-dioxidothietan-3-yl)-2-oxo-2,3-dihydro-1H-benzo[d]imidazole-5-carboxamide] | 93 | –
5 | CCOc1cc(-n2c(=O)n(C(C)C)c3cc(C(=O)NC4(C(F)F)CCS(=O)(=O)CC4)c(F)cc32)c(F)cn1 [Example 117, N-(4-(difluoromethyl)-1,1-dioxidotetrahydro-2H-thiopyran-4-yl)-1-(2-ethoxy-5-fluoropyridin-4-yl)-6-fluoro-3-isopropyl-2-oxo-2,3-dihydro-1H-benzo[d]imidazole-5-carboxamide] | 27 | –
6 | CC(C)n1c(=O)n(-c2cc(OC(F)F)ncc2F)c2cc(F)c(C(=O)NC3(C)CCS(=O)(=O)CC3)cc21 [Example 122, 1-(2-(difluoromethoxy)-5-fluoropyridin-4-yl)-6-fluoro-3-isopropyl-N-(4-methyl-1,1-dioxidotetrahydro-2H-thiopyran-4-yl)-2-oxo-2,3-dihydro-1H-benzo[d]imidazole-5-carboxamide] | – | 56
7 | CC(C)n1c(=O)n(-c2cc(OC(F)F)ncc2F)c2cc(F)c(C(=O)NC3(C)CS(=O)(=O)C3)cc21 [Example 123, 1-(2-(difluoromethoxy)-5-fluoropyridin-4-yl)-6-fluoro-3-isopropyl-N-(3-methyl-1,1-dioxidothietan-3-yl)-2-oxo-2,3-dihydro-1H-benzo[d]imidazole-5-carboxamide] | 73 | –
8 | CC(C)n1c(=O)n(-c2cccc(OC(F)F)c2)c2ccc(C(=O)N[C@@]3(C)CCS(=O)(=O)C3)c(F)c21 [Example 124, (S)-1-(3-(Difluoromethoxy)phenyl)-4-fluoro-3-isopropyl-N-(3-methyl-1,1-dioxidotetrahydrothiophen-3-yl)-2-oxo-2,3-dihydro-1H-benzo[d]imidazole-5-carboxamide] | – | 191
9 | CC(C)n1c(=O)n(-c2cccc(OC(F)F)c2)c2ccc(C(=O)N[C@]3(C)CCS(=O)(=O)C3)c(F)c21 [Example 125, (R)-1-(3-(Difluoromethoxy)phenyl)-4-fluoro-3-isopropyl-N-(3-methyl-1,1-dioxidotetrahydrothiophen-3-yl)-2-oxo-2,3-dihydro-1H-benzo[d]imidazole-5-carboxamide] | 203 | –

More lines, now with the values ahead:

Row | IC50 (read-out: DGAT2 IC50) [nM] | IC50 (read-out: Human DGAT2 IC50) [nM] | SMILES
10 | 7 | – | CC(C)n1c(=O)n(-c2cccc(OC(F)F)c2)c2c(F)cc(C(=O)N[C@]3(C)CCS(=O)(=O)C3)cc21 [Example 110, 1-[3-(difluoromethoxy)phenyl]-7-fluoro-3-isopropyl-N-[(3R)-3-methyl-1,1-dioxo-thiolan-3-yl]-2-oxo-benzimidazole-5-carboxamide]
11 | 68 | – | CC(C)n1c(=O)n(-c2cccc(OC(F)F)c2)c2c(F)cc(C(=O)NC3(C)CCS(=O)(=O)CC3)cc21 [Example 111, 1-[3-(difluoromethoxy)phenyl]-7-fluoro-3-isopropyl-N-(4-methyl-1,1-dioxo-thian-4-yl)-2-oxo-benzimidazole-5-carboxamide]
12 | – | 73.8 | CC(C)n1c(=O)n(-c2cccc(OC(F)F)c2)c2cc(F)c(C(=O)NC3(C)CCS(=O)(=O)CC3)cc21 [Example 112, 1-(3-(Difluoromethoxy)phenyl)-6-fluoro-3-isopropyl-N-(4-methyl-1,1-dioxidotetrahydro-2H-thiopyran-4-yl)-2-oxo-2,3-dihydro-1H-benzo[d]imidazole-5-carboxamide]
13 | – | 4.1 | CC(C)n1c(=O)n(-c2cc(OCC(F)F)ncc2F)c2cc(F)c(C(=O)NC3(C)CCS(=O)(=O)CC3)cc21 [Example 115, 1-(2-(2,2-difluoroethoxy)-5-fluoropyridin-4-yl)-6-fluoro-3-isopropyl-N-(4-methyl-1,1-dioxidotetrahydro-2H-thiopyran-4-yl)-2-oxo-2,3-dihydro-1H-benzo[d]imidazole-5-carboxamide]
14 | 5.5 | – | CC(C)n1c(=O)n(-c2cc(OC(F)(F)C(F)F)ccn2)c2cc(F)c(C(=O)NC3(C)CCS(=O)(=O)CC3)cc21 [Example 118, 6-fluoro-3-isopropyl-N-(4-methyl-1,1-dioxidotetrahydro-2H-thiopyran-4-yl)-2-oxo-1-(4-(1,1,2,2-tetrafluoroethoxy)pyridin-2-yl)-2,3-dihydro-1H-benzo[d]imidazole-5-carboxamide]
15 | 51 | – | CC(C)n1c(=O)n(-c2cc(OCC(F)F)ccn2)c2ccc(C(=O)NC3(C)CCS(=O)(=O)CC3)cc21 [Example 119, 1-(4-(2,2-difluoroethoxy)pyridin-2-yl)-3-isopropyl-N-(4-methyl-1,1-dioxidotetrahydro-2H-thiopyran-4-yl)-2-oxo-2,3-dihydro-1H-benzo[d]imidazole-5-carboxamide]
16 | 3.2 | – | CC(C)n1c(=O)n(-c2cc(OC(F)(F)C(F)F)ccn2)c2ccc(C(=O)NC3(C)CCS(=O)(=O)CC3)cc21 [Example 120, 3-isopropyl-N-(4-methyl-1,1-dioxidotetrahydro-2H-thiopyran-4-yl)-2-oxo-1-(4-(1,1,2,2-tetrafluoroethoxy)pyridin-2-yl)-2,3-dihydro-1H-benzo[d]imidazole-5-carboxamide]
17 | 92 | – | CC(C)n1c(=O)n(-c2cc(OCC(F)F)ccn2)c2cc(F)c(C(=O)NC3(C)CCS(=O)(=O)CC3)cc21 [Example 121, 1-(4-(2,2-difluoroethoxy)pyridin-2-yl)-6-fluoro-3-isopropyl-N-(4-methyl-1,1-dioxidotetrahydro-2H-thiopyran-4-yl)-2-oxo-2,3-dihydro-1H-benzo[d]imidazole-5-carboxamide]
18 | 257 | – | CC(C)n1c(=O)n(-c2cccc(OC(F)F)c2)c2ccc(C(=O)NC3(C)CCS(=O)(=O)CC3)c(F)c21 [Example 126, 1-(3-(Difluoromethoxy)phenyl)-4-fluoro-3-isopropyl-N-(4-methyl-1,1-dioxidotetrahydro-2H-thiopyran-4-yl)-2-oxo-2,3-dihydro-1H-benzo[d]imidazole-5-carboxamide]
19 | – | 112 | CC(C)n1c(=O)n(-c2cccc(OC(F)F)c2)c2cc(Cl)c(C(=O)NC3(C)CCS(=O)(=O)CC3)cc21 [Example 127]
20 | – | 1380 | CC(C)n1c(=O)n(-c2cccc(OC(F)F)c2)c2ccc(C(=O)NC3(C)CCS(=O)(=O)CC3)c(Cl)c21 [Example 128, 4-chloro-1-(3-(difluoromethoxy)phenyl)-3-isopropyl-N-(4-methyl-1,1-dioxidotetrahydro-2H-thiopyran-4-yl)-2-oxo-2,3-dihydro-1H-benzo[d]imidazole-5-carboxamide]
21 | – | 248 | CC(C)n1c(=O)n(-c2cccc(OC(F)F)c2)c2ccc(C(=O)NC3(C)CCS(=O)(=O)CC3)c(C#N)c21 [Example 129, 4-cyano-1-(3-(difluoromethoxy)phenyl)-3-isopropyl-N-(4-methyl-1,1-dioxidotetrahydro-2H-thiopyran-4-yl)-2-oxo-2,3-dihydro-1H-benzo[d]imidazole-5-carboxamide]
